The results in this text go back to patent US10759793B2, “2-(pyrazolopyridin-3-yl)pyrimidine derivatives as JAK inhibitors” (ALMIRALL, S.A., priority 2015, dated 2020).

Structures are written as SMILES.

Usually IC50 stands for the concentration at which inhibition is half-maximal.

Assay type in all cases: biochemical
One assay has as its target JAK3 (Homo sapiens (Human), UniProt P52333). As to the kind of experiment: In vitro JAK kinase assay (TR-FRET), JAK3. The settings on record: catalytic domain aa 795-1124, GST-fusion; ATP 0.6 μM; peptide 140 nM; 30 minutes at room temperature. The protocol: (§1) Compounds were screened for their ability to inhibit JAK1, JAK2 and JAK3 using the assays as indicated below. […] The enzymatic activity was assayed using as substrate a biotinylated peptide, poly (GT)-Biotin (CisBio). […] The degree of phosphorylation was detected by TR-FRET (time-resolved fluorescence energy transfer). […] The enzymatic reactions took place for 30 minutes at room temperature. […] Incubate for 3 h and read on Victor 2V spectrofluorometer (Perkin Elmer) set to read fluorescence resonance energy transfer.
In general terms: Time-resolved FRET reads energy transfer from a long-lived donor to a nearby acceptor.

Another assay concerns the target JAK1 (Homo sapiens (Human), UniProt P23458). As to the kind of experiment: In vitro JAK kinase assay (TR-FRET), JAK1. The settings on record: catalytic domain aa 850-1154, GST-fusion; ATP 3 μM; peptide 60 nM; 30 minutes at room temperature. The procedure:
as §1

The target of a further assay is JAK2 (Homo sapiens (Human), UniProt O60674). As to the kind of experiment: In vitro JAK kinase assay (TR-FRET), JAK2. To be noted: catalytic domain aa 826-1132, GST-fusion; ATP 0.2 μM; peptide 20 nM; 30 minutes at room temperature. The procedure: as §1
JAK2, sequence (O60674 826-1132): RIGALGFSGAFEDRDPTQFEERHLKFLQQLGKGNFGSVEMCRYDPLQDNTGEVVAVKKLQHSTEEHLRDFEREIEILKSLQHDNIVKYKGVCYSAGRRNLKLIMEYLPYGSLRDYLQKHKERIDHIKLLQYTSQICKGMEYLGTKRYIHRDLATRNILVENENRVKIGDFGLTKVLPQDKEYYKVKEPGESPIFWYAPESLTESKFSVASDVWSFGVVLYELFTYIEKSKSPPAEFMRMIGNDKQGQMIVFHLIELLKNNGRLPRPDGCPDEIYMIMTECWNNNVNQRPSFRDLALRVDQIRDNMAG

JAK3, sequence (P52333 795-1124): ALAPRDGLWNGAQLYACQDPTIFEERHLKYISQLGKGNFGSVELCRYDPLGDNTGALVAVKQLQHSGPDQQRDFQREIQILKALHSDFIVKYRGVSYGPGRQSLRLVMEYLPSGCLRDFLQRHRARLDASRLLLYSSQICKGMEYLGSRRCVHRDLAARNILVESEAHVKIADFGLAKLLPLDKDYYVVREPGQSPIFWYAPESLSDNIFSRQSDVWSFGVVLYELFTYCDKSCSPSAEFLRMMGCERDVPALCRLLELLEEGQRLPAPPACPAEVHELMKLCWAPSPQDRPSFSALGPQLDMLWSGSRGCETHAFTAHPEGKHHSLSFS
JAK1, sequence (P23458 850-1154): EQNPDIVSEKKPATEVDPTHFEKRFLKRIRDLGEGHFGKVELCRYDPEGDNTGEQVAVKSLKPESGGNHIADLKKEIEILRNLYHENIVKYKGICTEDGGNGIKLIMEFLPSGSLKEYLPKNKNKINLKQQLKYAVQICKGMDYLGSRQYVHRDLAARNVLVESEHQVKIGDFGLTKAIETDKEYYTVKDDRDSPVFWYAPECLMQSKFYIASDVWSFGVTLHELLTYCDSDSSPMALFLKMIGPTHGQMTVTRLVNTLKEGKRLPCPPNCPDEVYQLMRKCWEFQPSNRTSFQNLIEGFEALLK

Regarding `Cc1cc(-c2nc(-c3cnn4ccccc34)nc(N(C)[C@@H]3CCCN(C(=O)CC#N)C3)c2F)ccn1` [Example 21, 3-{(3R)-3-[[5-fluoro-6-(2-methylpyridin-4-yl)-2-pyrazolo[1,5-a]pyridin-3-ylpyrimidin-4-yl](methyl)amino]piperidin-1-yl}-3-oxopropanenitrile], the figures for the IC50 against JAK3, at JAK1 and at JAK2 were 11 nM, 6 nM and 1 nM, respectively.

As to `O=C(CO)N1CCC[C@@H](Nc2nc(-c3cnn4ccccc34)nc(N3CCC(O)CC3)c2F)C1` [Example 22, 1-(5-Fluoro-6-{[(3R)-1-glycoloylpiperidin-3-yl]amino}-2-pyrazolo[1,5-a]pyridin-3-ylpyrimidin-4-yl)piperidin-4-ol], the IC50 on JAK3 was found to be 4 nM; against JAK1, 7 nM; on JAK2 it was 0.7 nM.

On to `O=C(CO)N1CCC[C@@H](Nc2nc(-c3cnn4ccccc34)nc(N3CCC(CO)CC3)c2F)C1` [Example 23, 2-[(3R)-3-({5-Fluoro-6-[4-(hydroxymethyl)piperidin-1-yl]-2-pyrazolo[1,5-a]pyridin-3-ylpyrimidin-4-yl}amino)piperidin-1-yl]-2-oxoethanol], for which the IC50 on JAK3 turned out to be 5 nM; against JAK1 it was 8 nM; against JAK2, 1 nM.

As to `CN1CCN(c2nc(-c3cnn4ccccc34)nc(N[C@@H]3CCCN(C(=O)CO)C3)c2F)CC1` [Example 25, 2-((3R)-3-{[5-fluoro-6-(4-methylpiperazin-1-yl)-2-pyrazolo[1,5-a]pyridin-3-ylpyrimidin-4-yl]amino}piperidin-1-yl)-2-oxoethanol], the figures for the IC50 against JAK3, at JAK1 and on JAK2 were 2 nM, 22 nM and 0.6 nM, respectively.

Regarding `Cc1c(N[C@@H]2CCCN(C(=O)CO)C2)nc(-c2cnn3ccccc23)nc1N1CCOCC1` [Example 26, 2-{(3R)-3-[(5-Methyl-6-morpholin-4-yl-2-pyrazolo[1,5-a]pyridin-3-ylpyrimidin-4-yl)amino]piperidin-1-yl}-2-oxoethanol], the IC50 on JAK3 is 30 nM; against JAK1 it was 26 nM; against JAK2, 4 nM.

As for `COCCOc1nc(-c2cnn3ccccc23)nc(N[C@@H]2CCCN(C(=O)CO)C2)c1C` [Example 27, 2-((3R)-3-{[6-(2-Methoxyethoxy)-5-methyl-2-pyrazolo[1,5-a]pyridin-3-ylpyrimidin-4-yl]amino}piperidin-1-yl)-2-oxoethanol], the IC50 against JAK3 stood at 3 nM; on JAK1, 19 nM; against JAK2 it was 0.7 nM.

On to `CCOC(=O)C1(C)CCN(c2nc(-c3cnn4ccccc34)nc(N[C@@H]3CCCN(C(=O)CO)C3)c2F)CC1` [Example 28, Ethyl 1-(5-fluoro-6-{[(3R)-1-glycoloylpiperidin-3-yl]amino}-2-pyrazolo[1,5-a]pyridin-3-ylpyrimidin-4-yl)-4-methylpiperidine-4-carboxylate], for which the IC50 was determined as 3 nM against JAK3, 5 nM against JAK1 and 0.8 nM on JAK2.

`Cc1ccn2ncc(-c3nc(N[C@@H]4CCCN(C(=O)CO)C4)c(F)c(N4CCOCC4)n3)c2c1` [Example 29, 2-((3R)-3-{[5-Fluoro-2-(5-methylpyrazolo[1,5-a]pyridin-3-yl)-6-morpholin-4-ylpyrimidin-4-yl]amino}piperidin-1-yl)-2-oxoethanol]: the figures for the IC50 against JAK3, on JAK1 and at JAK2 were 10 nM, 27 nM and 4 nM, respectively.

Take `CCOC(=O)C1CCN(c2nc(-c3cnn4ccccc34)nc(N[C@@H]3CCCN(C(=O)CC#N)C3)c2F)CC1` [Example 30, Ethyl 1-(6-{[(3R)-1-(cyanoacetyl)piperidin-3-yl]amino}-5-fluoro-2-pyrazolo[1,5-a]pyridin-3-ylpyrimidin-4-yl)piperidine-4-carboxylate]: the IC50 at JAK3 came out at 2 nM; against JAK1, 4 nM; against JAK2, 0.6 nM.

For the compound `N#CCC(=O)N1CCC[C@@H](Nc2nc(-c3cnn4ccccc34)nc(N3CCC(C(=O)O)CC3)c2F)C1` [Example 31, 1-(6-{[(3R)-1-(Cyanoacetyl)piperidin-3-yl]amino}-5-fluoro-2-pyrazolo[1,5-a]pyridin-3-ylpyrimidin-4-yl)piperidine-4-carboxylic acid], the values for the IC50 against JAK3, at JAK1 and at JAK2 were 2 nM, 1 nM and 0.4 nM, respectively.

In the case of `O=C(CO)N1CCC[C@@H](Nc2nc(-c3cnn4ccccc34)nc(-c3cn[nH]c3)c2F)C1` [Example 32, 2-((3R)-3-{[5-Fluoro-2-pyrazolo[1,5-a]pyridin-3-yl-6-(1H-pyrazol-4-yl)pyrimidin-4-yl]amino}piperidin-1-yl)-2-oxoethanol], the IC50 at JAK3 amounted to 4 nM; at JAK1, 2 nM; on JAK2, 0.6 nM.

As to `CC(C)(O)Cn1cc(-c2nc(-c3cnn4ccccc34)nc(N[C@@H]3CCCN(C(=O)CO)C3)c2F)cn1` [Example 33, 1-[4-(5-Fluoro-6-{[(3R)-1-glycoloylpiperidin-3-yl]amino}-2-pyrazolo[1,5-a]pyridin-3-ylpyrimidin-4-yl)-1H-pyrazol-1-yl]-2-methylpropan-2-ol], the IC50 was 2 nM at JAK3, 6 nM on JAK1 and 0.6 nM at JAK2.

As to `Cc1cc(-c2nc(-c3cnn4ccccc34)nc(N[C@@H]3CCCN(C(=O)CO)C3)c2F)ccn1` [Example 34, 2-((3R)-3-{[5-Fluoro-6-(2-methylpyridin-4-yl)-2-pyrazolo[1,5-a]pyridin-3-ylpyrimidin-4-yl]amino}piperidin-1-yl)-2-oxoethanol], the IC50 on JAK3 turned out to be 4 nM; against JAK1 it was 2 nM; against JAK2, 0.2 nM.

In the case of `Cc1ccc(-c2nc(-c3cnn4ccccc34)nc(N[C@@H]3CCCN(C(=O)CO)C3)c2F)cn1` [Example 36, 2-((3R)-3-{[5-Fluoro-6-(6-methylpyridin-3-yl)-2-pyrazolo[1,5-a]pyridin-3-ylpyrimidin-4-yl]amino}piperidin-1-yl)-2-oxoethanol], the half-maximal inhibitory concentration (IC50) was found to be 2 nM against JAK3, 2 nM against JAK1 and 0.5 nM against JAK2.

On to `O=C(CO)N1CCC[C@@H](Nc2nc(-c3cnn4ccccc34)nc(-c3ccnc(CO)c3)c2F)C1` [Example 37, 2-[(3R)-3-({5-Fluoro-6-[2-(hydroxymethyl)pyridin-4-yl]-2-pyrazolo[1,5-a]pyridin-3-ylpyrimidin-4-yl}amino)piperidin-1-yl]-2-oxoethanol], for which the IC50 amounted to 7 nM on JAK3, 2 nM on JAK1 and 1 nM against JAK2.

For `CCOC(=O)c1ccc(-c2nc(-c3cnn4ccccc34)nc(N[C@@H]3CCCN(C(=O)CO)C3)c2F)cn1` [Example 38, Ethyl 5-(5-fluoro-6-{[(3R)-1-glycoloylpiperidin-3-yl]amino}-2-pyrazolo[1,5-a]pyridin-3-ylpyrimidin-4-yl)pyridine-2-carboxylate], the figures for the IC50 at JAK3, against JAK1 and against JAK2 were 6 nM, 4 nM and 2 nM, respectively.

Consider `COCCOc1nc(-c2cnn3ccccc23)nc(N[C@@H]2CCCN(C(=O)CO)C2)c1F` [Example 39, 2-((3R)-3-{[5-Fluoro-6-(2-methoxyethoxy)-2-pyrazolo[1,5-a]pyridin-3-ylpyrimidin-4-yl]amino}piperidin-1-yl)-2-oxoethanol], for which the IC50 came out at 3 nM against JAK3, 11 nM against JAK1 and 0.8 nM against JAK2.

In the case of `O=C(CO)N1CCC[C@@H](Nc2nc(-c3cnn4ccccc34)nc(OCCO)c2F)C1` [Example 40, 2-((3R)-3-{[5-Fluoro-6-(2-hydroxyethoxy)-2-pyrazolo[1,5-a]pyridin-3-ylpyrimidin-4-yl]amino}piperidin-1-yl)-2-oxoethanol], the IC50 against JAK3 worked out at 2 nM; against JAK1 it was 4 nM; against JAK2 it was 0.8 nM.

In the case of `O=C(CO)N1CCC[C@@H](Nc2nc(-c3cnn4ccccc34)nc(OCCCO)c2F)C1` [Example 41, 3-[(5-Fluoro-6-{[(3R)-1-glycoloylpiperidin-3-yl]amino}-2-pyrazolo[1,5-a]pyridin-3-ylpyrimidin-4-yl)oxy]propan-1-ol], the IC50 came out at 3 nM against JAK3, 8 nM against JAK1 and 1 nM against JAK2.

Consider `COc1nc(-c2cnn3ccccc23)nc(N[C@@H]2CCCN(C(=O)CO)C2)c1F` [Example 42, 2-{(3R)-3-[(5-Fluoro-6-methoxy-2-pyrazolo[1,5-a]pyridin-3-ylpyrimidin-4-yl)amino]piperidin-1-yl}-2-oxoethanol], for which the figures for the IC50 against JAK3, on JAK1 and on JAK2 were 1 nM, 13 nM and 1 nM, respectively.

For `O=C(CO)N1CCC[C@@H](Nc2nc(-c3cnn4ccccc34)nc(O)c2F)C1` [Example 43, 5-Fluoro-6-{[(3R)-1-glycoloylpiperidin-3-yl]amino}-2-pyrazolo[1,5-a]pyridin-3-ylpyrimidin-4-ol], the half-maximal inhibitory concentration (IC50) came out at 1 nM against JAK3, 4 nM on JAK1 and 0.7 nM against JAK2.

On to `O=C(COc1nc(-c2cnn3ccccc23)nc(N[C@@H]2CCCN(C(=O)CO)C2)c1F)OCc1ccccc1` [Example 44, Benzyl[(5-fluoro-6-{[(3R)-1-glycoloylpiperidin-3-yl]amino}-2-pyrazolo[1,5-a]pyridin-3-ylpyrimidin-4-yl)oxy]acetate], for which the IC50 against JAK3 was found to be 140 nM; against JAK1, 970 nM; against JAK2 it was 74 nM.

Regarding `CCOc1nc(-c2cnn3ccccc23)nc(N[C@@H]2CCCN(C(=O)CO)C2)c1F` [Example 45, 2-{(3R)-3-[(6-Ethoxy-5-fluoro-2-pyrazolo[1,5-a]pyridin-3-ylpyrimidin-4-yl)amino]piperidin-1-yl}-2-oxoethanol], the IC50 is 3 nM against JAK3, 4 nM against JAK1 and 1 nM against JAK2.
